Test results taken from US20250195551A1 (L4 BIO LLC, priority 2023, published 2025).

Assay: Excipient compatibility study
Format: physicochemical
Conditions: for Chromatographic purity by HPLC (Assay) / Total Impurities % (excluding API impurities %): 40° C./75% RH
Protocol: An excipient compatibility study was initiated with selected excipients ranging from oils to surfactants based on equilibrium solubility results (Table 2). […] After solutions were prepared using a hand-held homogenizer (Model IKAT10 Ultra-Turrax), each excipient sample was aliquoted in amber vials, approximately 10% water was added in each excipient aliquot, and bench scale gel stripe OET-004037 was also made and added in a separate set of aliquot samples at approximately 1:1 w/w.
All samples were stored at 40° C./75% relative humidity (RH) condition (Model: Lunaire environmental chamber) and tested by developmental reversed phase HPLC method for Assay/Related Substances at T=0, 2 weeks, and 1 month.

[1] = in Fractionated coconut oil, Sample: 10% water, T = 2 weeks
[2] = in Fractionated coconut oil, Sample: Control, T = 0
[3] = in Fractionated coconut oil, Sample: Control, T = 2 weeks
[4] = in Fractionated coconut oil, Sample: Gel Stripe (1:1 w/w), T = 2 weeks
[5] = in Labrasol ALF, Sample: 10% water, T = 1 months
[6] = in Labrasol ALF, Sample: 10% water, T = 2 weeks
[7] = in Labrasol ALF, Sample: Control, T = 0
[8] = in Labrasol ALF, Sample: Control, T = 1 months
[9] = in Labrasol ALF, Sample: Control, T = 2 weeks
[10] = in Labrasol ALF, Sample: Gel Stripe (1:1 w/w), T = 1 months
[11] = in Labrasol ALF, Sample: Gel Stripe (1:1 w/w), T = 2 weeks
[12] = in Maisine CC, Sample: 10% water, T = 1 months
[13] = in Maisine CC, Sample: 10% water, T = 2 weeks
[14] = in Maisine CC, Sample: Control, T = 0
[15] = in Maisine CC, Sample: Control, T = 1 months
[16] = in Maisine CC, Sample: Control, T = 2 weeks
[17] = in Maisine CC, Sample: Gel Stripe (1:1 w/w), T = 1 months
[18] = in Maisine CC, Sample: Gel Stripe (1:1 w/w), T = 2 weeks
[19] = in Masester E8120, Sample: 10% water, T = 1 months
[20] = in Masester E8120, Sample: 10% water, T = 2 weeks
[21] = in Masester E8120, Sample: Control, T = 0
[22] = in Masester E8120, Sample: Control, T = 1 months
[23] = in Masester E8120, Sample: Control, T = 2 weeks
[24] = in Masester E8120, Sample: Gel Stripe (1:1 w/w), T = 1 months
[25] = in Masester E8120, Sample: Gel Stripe (1:1 w/w), T = 2 weeks
[26] = in Oleic acid, Sample: 10% water, T = 2 weeks
[27] = in Oleic acid, Sample: Control, T = 0
[28] = in Oleic acid, Sample: Control, T = 2 weeks
[29] = in Oleic acid, Sample: Gel Stripe (1:1 w/w), T = 2 weeks
[30] = in PEG 400, Sample: 10% water, T = 2 weeks

ivermectin
Chemical compatibility with the API (PEG 400 as co-solvent): poor chemical compatibility
Chemical compatibility with the API (Vitamin E TPGS compared with Tween 80 and Labrasol ALF (surfactants)): best chemical compatibility
Chromatographic purity by HPLC (Assay) [1]: 97.83 % area
Total Impurities % (excluding API impurities %) [1]: <LOQ
Chromatographic purity by HPLC (Assay) [2]: 95.61 % area
Total Impurities % (excluding API impurities %) [2]: <LOQ
Chromatographic purity by HPLC (Assay) [3]: 97.94 % area
Total Impurities % (excluding API impurities %) [3]: <LOQ
Chromatographic purity by HPLC (Assay) [4]: 94.42 % area
Total Impurities % (excluding API impurities %) [4]: 3.28 % adjusted area
Chromatographic purity by HPLC (Assay) [5]: 89.91 % area
Total Impurities % (excluding API impurities %) [5]: 8.76 % adjusted area
Chromatographic purity by HPLC (Assay) [6]: 93.91 % area
Total Impurities % (excluding API impurities %) [6]: 3.46 % adjusted area
Chromatographic purity by HPLC (Assay) [7]: 97.74 % area
Total Impurities % (excluding API impurities %) [7]: <LOQ
Chromatographic purity by HPLC (Assay) [8]: 81.35 % area
Total Impurities % (excluding API impurities %) [8]: 20.49 % adjusted area
Chromatographic purity by HPLC (Assay) [9]: 89.16 % area
Total Impurities % (excluding API impurities %) [9]: 8.67 % adjusted area
Chromatographic purity by HPLC (Assay) [10]: 96.49 % area
Total Impurities % (excluding API impurities %) [10]: 1.06 % adjusted area
Chromatographic purity by HPLC (Assay) [11]: 97.11 % area
Total Impurities % (excluding API impurities %) [11]: 0.30 % adjusted area
Chromatographic purity by HPLC (Assay) [12]: 96.83 % area
Total Impurities % (excluding API impurities %) [12]: 0.69 % adjusted area
Chromatographic purity by HPLC (Assay) [13]: 95.90 % area
Total Impurities % (excluding API impurities %) [13]: 0.45 % adjusted area
Chromatographic purity by HPLC (Assay) [14]: 97.13 % area
Total Impurities % (excluding API impurities %) [14]: 0.58 % adjusted area
Chromatographic purity by HPLC (Assay) [15]: 96.82 % area
Total Impurities % (excluding API impurities %) [15]: 0.71 % adjusted area
Chromatographic purity by HPLC (Assay) [16]: 96.00 % area
Total Impurities % (excluding API impurities %) [16]: 0.35 % adjusted area
Chromatographic purity by HPLC (Assay) [17]: 96.94 % area
Total Impurities % (excluding API impurities %) [17]: 0.58 % adjusted area
Chromatographic purity by HPLC (Assay) [18]: 96.15 % area
Total Impurities % (excluding API impurities %) [18]: 0.33 % adjusted area
Chromatographic purity by HPLC (Assay) [19]: 91.68 % area
Total Impurities % (excluding API impurities %) [19]: 6.60 % adjusted area
Chromatographic purity by HPLC (Assay) [20]: 95.11 % area
Total Impurities % (excluding API impurities %) [20]: 2.27 % adjusted area
Chromatographic purity by HPLC (Assay) [21]: 97.58 % area
Total Impurities % (excluding API impurities %) [21]: 0.17 % adjusted area
Chromatographic purity by HPLC (Assay) [22]: 97.06 % area
Total Impurities % (excluding API impurities %) [22]: 0.45 % adjusted area
Chromatographic purity by HPLC (Assay) [23]: 96.81 % area
Total Impurities % (excluding API impurities %) [23]: 0.58 % adjusted area
Chromatographic purity by HPLC (Assay) [24]: 97.31 % area
Total Impurities % (excluding API impurities %) [24]: 0.18 % adjusted area
Chromatographic purity by HPLC (Assay) [25]: 97.35 % area
Total Impurities % (excluding API impurities %) [25]: 0.11 % adjusted area
Chromatographic purity by HPLC (Assay) [26]: 86.02 % area
Total Impurities % (excluding API impurities %) [26]: 9.89 % adjusted area
Chromatographic purity by HPLC (Assay) [27]: 99.60 % area
Total Impurities % (excluding API impurities %) [27]: <LOQ
Chromatographic purity by HPLC (Assay) [28]: 83.55 % area
Total Impurities % (excluding API impurities %) [28]: 17.27 % adjusted area
Chromatographic purity by HPLC (Assay) [29]: 83.73 % area
Total Impurities % (excluding API impurities %) [29]: 11.82 % adjusted area
Chromatographic purity by HPLC (Assay) [30]: 94.35 % area
Total Impurities % (excluding API impurities %) [30]: 3.15 % adjusted area
Chromatographic purity by HPLC (Assay) (in PEG 400, Sample: Control, T = 0): 97.58 % area
